For the experiment, the target named is Protein-arginine deiminase type-4 (Homo sapiens) (UniProt Q9UM07). Put plainly: IC50 against protein arginine deiminase 4 – biochemical, fluorescence readout, dose response (AID 492970). As to conditions: recombinant PAD4, BAEE citrulline colorimetric readout.
Protein-arginine deiminase type-4 (Homo sapiens), sequence (Q9UM07 whole entry, looked up): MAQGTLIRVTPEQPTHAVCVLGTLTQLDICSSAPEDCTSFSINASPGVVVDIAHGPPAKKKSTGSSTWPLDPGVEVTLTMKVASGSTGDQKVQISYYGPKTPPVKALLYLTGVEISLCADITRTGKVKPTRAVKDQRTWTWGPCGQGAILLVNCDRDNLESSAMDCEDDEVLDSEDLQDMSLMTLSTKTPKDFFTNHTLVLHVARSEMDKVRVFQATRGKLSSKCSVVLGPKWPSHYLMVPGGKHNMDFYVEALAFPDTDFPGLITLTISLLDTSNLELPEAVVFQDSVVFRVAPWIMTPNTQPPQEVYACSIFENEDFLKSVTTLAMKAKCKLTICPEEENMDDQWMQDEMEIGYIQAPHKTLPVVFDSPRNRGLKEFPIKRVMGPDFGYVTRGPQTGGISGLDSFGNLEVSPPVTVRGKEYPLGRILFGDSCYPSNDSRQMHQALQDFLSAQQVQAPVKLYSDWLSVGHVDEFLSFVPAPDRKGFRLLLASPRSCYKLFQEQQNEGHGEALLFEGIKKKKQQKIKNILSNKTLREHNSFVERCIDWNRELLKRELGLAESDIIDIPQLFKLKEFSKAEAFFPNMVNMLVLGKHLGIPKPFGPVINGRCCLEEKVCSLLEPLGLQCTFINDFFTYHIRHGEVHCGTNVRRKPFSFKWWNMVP

A word on the IC50: it is the midpoint of a concentration-inhibition curve. Turning to `COC1=C(N)C(=O)c2nc(-c3nc(C(=O)O)c(C)c(-c4ccc(OC)c(OC)c4O)c3N)ccc2C1=O`, the IC50 was 2500 nM.

The values are drawn from PubChem BioAssay AID492970 (The Scripps Research Institute Molecular Screening Center, 2010).
